Experimental data reported in patent publication US20100047907A1, “METHODS OF TRANSPORTING EPITHELIAL CELL MONOLAYERS” (Absorption System Group LLC, priority 2008, published 2010).

Columns and labels:
P-gp [1] = experiment: Bidirectional digoxin Pgp transport across MDCK monolayers; details: dog, MDCK-MDR1, pH 7.4, Pgp transport
P-glycoprotein (PGP) [2] = molecular target: T1, P-glycoprotein (PGP) (Homo sapiens, UniProt P08183); experiment: in vitro; details: Caco-2, pH 7.4, Pgp transport
PGP [3] = molecular target: T2, PGP (Homo sapiens, UniProt P08183); experiment: in vitro; details: Caco-2, pH 7.4, Pgp transport
P-gp (PGP) = P-gp (PGP) (Homo sapiens, UniProt P08183); experiment: in vitro; details: Caco-2, pH 7.4, Pgp transport, Papp B->A
P-glycoprotein (PGP) [4] = molecular target: T1, P-glycoprotein (PGP); experiment: Bidirectional digoxin Pgp transport across C2BBe1 monolayers; details: Caco-2, pH 7.4
PGP [5] = molecular target: T2, PGP; experiment: Bidirectional digoxin Pgp transport across Caco-2 monolayers; details: Caco-2, pH 7.4
P-gp [6] = experiment: Bidirectional digoxin Pgp transport across MDR-MDCK monolayers; details: human, MDCK-MDR1, pH 7.4, Pgp transport
[7] = system: human P-glycoprotein (PGP); experiment: as above; details: dog, MDCK-MDR1, pH 7.4, Pgp transport; for Papp A→B at 2 h, 10 µM / Papp B→A at 2 h, 10 µM: assayed day 12
in vitro = details: human, Caco-2, pH 7.4, Passive diffusion
Caco-2 cell monolayers = experiment: Sodium butyrate supplementation of medium of Caco-2 monolayers, 7-day culture procedure, simulated transport; assay type: cell-based, human
Procedure: Caco-2 cells were used to assess whether cells grown using the 7-day culture procure were likely to yield intact cell monolayers following shipment. To shorten the period required for cell monolayer formation the seeding density for each Transwell® insert was increased to 240,000 cells per cm^2 (rather than 60,000 cells/cm^2). Once plated, the cells were incubated overnight at 37° C. with 0.5 mL of medium (90% Dulbecco's Modified Eagle Medium supplemented with 10% fetal bovine serum) in the apical chamber and 1.5 mL of medium in the basolateral chamber to allow for attachment to the Transwell®. Adherent cells were provided with fresh cell culture medium for the next two days. The cells were then left on a laboratory bench, at room temperature, overnight to simulate transport conditions. In order to simulate receipt of transported cells, the next day the Transwell® inserts were removed from tissue culture plates containing 0.75% agarose medium and moved to a new plate containing fresh tissue culture medium. The cell monolayers were then incubated for 3 or 6 days under normal growth conditions before they were tested for membrane integrity and permeability. […]

[8] = Table 9 control, assayed day 10
[9] = Table 9 shipped, 0.75% agarose media basolateral only, assayed day 10
[10] = Table 12 control, 7 d in culture
[11] = Table 12 shipped overnight by air, 0.75% agarose medium basolateral only, 9 d in culture
[12] = Table 10 control, assayed day 12
[13] = Table 13 MDR1-MDCK control, 7 d in culture
[14] = Table 13 MDR1-MDCK shipped overnight by air, 0.75% agarose medium basolateral only, 10 d in culture
[15] = air cargo shipped (three days in transit), 0.75% agarose media basolateral only, assayed day 12
[16] = Table 5 control, not shipped, assayed 7 D
[17] = Table 6 shipped at 5 D, 0.5% agarose medium basolateral only, assayed 10 D
[18] = Table 7 shipped at day 6, 0.5% agarose medium basolateral only
[19] = shipped, 0.5% agarose medium apical only, Table 5 lower block c1, assayed 7 D
[20] = shipped, 0.5% agarose medium apical only, Table 5 lower block c2, assayed 7 D
[21] = shipped, 0.5% agarose medium apical only, Table 5 upper block c1, assayed 7 D
[22] = shipped, 0.5% agarose medium apical only, Table 5 upper block c2, assayed 7 D
[23] = shipped, 0.5% agarose medium apical only, Table 5 upper block c4, assayed 7 D
[24] = shipped, 0.5% agarose medium basolateral only, assayed 7 D

T2 sequence (P08183 whole entry): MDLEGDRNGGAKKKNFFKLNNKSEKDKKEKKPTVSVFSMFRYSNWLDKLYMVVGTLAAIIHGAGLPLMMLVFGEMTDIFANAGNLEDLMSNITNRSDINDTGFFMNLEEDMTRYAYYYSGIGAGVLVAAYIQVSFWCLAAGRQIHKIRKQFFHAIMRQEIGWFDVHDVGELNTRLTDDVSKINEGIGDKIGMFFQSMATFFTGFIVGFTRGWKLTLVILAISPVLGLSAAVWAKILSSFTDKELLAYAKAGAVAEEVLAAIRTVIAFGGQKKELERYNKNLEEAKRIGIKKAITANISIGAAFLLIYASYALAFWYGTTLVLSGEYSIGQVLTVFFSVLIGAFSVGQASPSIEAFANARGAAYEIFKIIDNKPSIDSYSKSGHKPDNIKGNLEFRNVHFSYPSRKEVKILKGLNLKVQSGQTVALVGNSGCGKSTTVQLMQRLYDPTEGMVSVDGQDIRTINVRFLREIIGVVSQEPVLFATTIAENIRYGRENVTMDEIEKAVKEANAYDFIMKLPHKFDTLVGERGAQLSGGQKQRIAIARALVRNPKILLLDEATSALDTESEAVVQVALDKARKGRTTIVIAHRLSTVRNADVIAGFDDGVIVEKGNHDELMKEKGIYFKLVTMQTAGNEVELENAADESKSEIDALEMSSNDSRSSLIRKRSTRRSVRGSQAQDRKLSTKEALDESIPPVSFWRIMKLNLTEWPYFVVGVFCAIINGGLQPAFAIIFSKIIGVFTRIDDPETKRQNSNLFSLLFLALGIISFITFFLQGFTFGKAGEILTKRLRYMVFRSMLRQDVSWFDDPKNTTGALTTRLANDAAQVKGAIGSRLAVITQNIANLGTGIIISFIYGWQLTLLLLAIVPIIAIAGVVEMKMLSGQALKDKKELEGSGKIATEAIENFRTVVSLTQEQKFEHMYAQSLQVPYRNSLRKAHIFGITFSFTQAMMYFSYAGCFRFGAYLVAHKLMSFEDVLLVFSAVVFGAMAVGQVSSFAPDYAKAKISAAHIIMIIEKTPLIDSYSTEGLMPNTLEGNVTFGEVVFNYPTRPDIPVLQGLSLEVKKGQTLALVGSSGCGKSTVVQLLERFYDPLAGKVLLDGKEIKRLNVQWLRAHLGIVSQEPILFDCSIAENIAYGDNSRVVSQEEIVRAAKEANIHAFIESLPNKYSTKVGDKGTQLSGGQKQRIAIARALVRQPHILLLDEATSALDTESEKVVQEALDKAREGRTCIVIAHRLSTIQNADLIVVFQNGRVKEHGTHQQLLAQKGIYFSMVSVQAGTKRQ
T1 sequence (P08183 whole entry): as above
Chain of P-gp (PGP) (P08183 whole entry): as above

SMILES: C[C@H]1O[C@@H](O[C@H]2[C@@H](O)C[C@H](O[C@H]3[C@@H](O)C[C@H](O[C@H]4CC[C@@]5(C)[C@H](CC[C@@H]6[C@@H]5C[C@@H](O)[C@]5(C)[C@@H](C7=CC(=O)OC7)CC[C@]65O)C4)O[C@@H]3C)O[C@@H]2C)C[C@H](O)[C@@H]1O [Digoxin, digoxin]
- Papp A→B at 2 h, 10 µM (P-gp [1]; [8]): 0.2 ×10⁻⁶ cm/s
- Papp A→B at 2 h, 10 µM (P-gp [1]; [9]): 0.04 ×10⁻⁶ cm/s
- Papp A→B at 2 h, 10 µM (P-gp [1]; [10]): 0.12 ×10⁻⁶ cm/s
- Papp A→B at 2 h, 10 µM (P-gp [1]; [11]): 0.16 ×10⁻⁶ cm/s
- Papp B→A at 2 h, 10 µM (P-gp [1]; [8]): 0.94 ×10⁻⁶ cm/s
- Papp B→A at 2 h, 10 µM (P-gp [1]; [9]): 3.83 ×10⁻⁶ cm/s
- Papp B→A at 2 h, 10 µM (P-gp [1]; [10]): 6.92 ×10⁻⁶ cm/s
- Papp B→A at 2 h, 10 µM (P-gp [1]; [11]): 7.44 ×10⁻⁶ cm/s
- Papp B→A at 2 h, 10 µM (P-glycoprotein (PGP) [2]): 6.86 ×10⁻⁶ cm/s
- Papp A→B at 2 h, 10 µM (PGP [3]; Papp A->B): 1.13 ×10⁻⁶ cm/s
- Papp B→A at 120 min, 10 µM (PGP [3]; Papp B->A): 21.6 ×10⁻⁶ cm/s
- Papp B→A at 2 h, 10 µM (PGP [3]; Papp B->A): 15.2 ×10⁻⁶ cm/s
- Papp B→A at 120 min, 10 µM (P-gp (PGP)): 21.9 ×10⁻⁶ cm/s
- Papp B→A at 2 h, 10 µM (P-glycoprotein (PGP) [4]): 5.67 ×10⁻⁶ cm/s
- Papp A→B at 120 min, 10 µM (PGP [5]): 0.66 ×10⁻⁶ cm/s
- Papp A→B at 2 h, 10 µM (P-gp [6]; [12]): 0.04 ×10⁻⁶ cm/s
- Papp A→B at 2 h, 10 µM (P-gp [6]; [13]): 0.02 ×10⁻⁶ cm/s
- Papp A→B at 2 h, 10 µM (P-gp [6]; [14]): 0.09 ×10⁻⁶ cm/s
- Papp A→B at 2 h, 10 µM (P-gp [6]; [15]): 0.07 ×10⁻⁶ cm/s
- Papp B→A at 2 h, 10 µM (P-gp [6]; [12]): 10.9 ×10⁻⁶ cm/s
- Papp B→A at 2 h, 10 µM (P-gp [6]; [13]): 12.6 ×10⁻⁶ cm/s
- Papp B→A at 2 h, 10 µM (P-gp [6]; [14]): 20.1 ×10⁻⁶ cm/s
- Papp B→A at 2 h, 10 µM (P-gp [6]; [15]): 13.1 ×10⁻⁶ cm/s
- Papp A→B at 120 min, 10 µM [7, 16]: 0.1 ×10⁻⁶ cm/s
- Papp A→B at 120 min, 10 µM ([7]; Table 6 control, assayed 10 D): 0.15 ×10⁻⁶ cm/s
- Papp A→B at 120 min, 10 µM [7, 17]: 0.21 ×10⁻⁶ cm/s
- Papp A→B at 2 h, 10 µM ([7]; Table 7 control): 0.15 ×10⁻⁶ cm/s
- Papp A→B at 2 h, 10 µM [7, 18]: 0.09 ×10⁻⁶ cm/s
- Papp A→B at 120 min, 10 µM [7, 19]: 0.18 ×10⁻⁶ cm/s
- Papp A→B at 120 min, 10 µM [7, 20]: 0.09 ×10⁻⁶ cm/s
- Papp A→B at 120 min, 10 µM [7, 21]: 0.11 ×10⁻⁶ cm/s
- Papp A→B at 120 min, 10 µM [7, 22]: 0.06 ×10⁻⁶ cm/s
- Papp A→B at 120 min, 10 µM [7, 23]: 0.07 ×10⁻⁶ cm/s
- Papp A→B at 120 min, 10 µM [7, 24]: 0.06 ×10⁻⁶ cm/s
- Papp B→A at 120 min, 10 µM [7, 16]: 6.7 ×10⁻⁶ cm/s
- Papp B→A at 120 min, 10 µM ([7]; Table 6 control, assayed 10 D): 10.8 ×10⁻⁶ cm/s
- Papp B→A at 120 min, 10 µM [7, 17]: 9.14 ×10⁻⁶ cm/s
- Papp B→A at 2 h, 10 µM ([7]; Table 7 control): 6.37 ×10⁻⁶ cm/s
- Papp B→A at 2 h, 10 µM [7, 18]: 6.4 ×10⁻⁶ cm/s
- Papp B→A at 120 min, 10 µM [7, 19]: 7.05 ×10⁻⁶ cm/s
- Papp B→A at 120 min, 10 µM [7, 20]: 8.27 ×10⁻⁶ cm/s
- Papp B→A at 120 min, 10 µM [7, 21]: 5.24 ×10⁻⁶ cm/s
- Papp B→A at 120 min, 10 µM [7, 22]: 6.19 ×10⁻⁶ cm/s
- Papp B→A at 120 min, 10 µM ([7]; shipped, 0.5% agarose medium apical only, Table 5 upper block c3, assayed 7 D): 4.65 ×10⁻⁶ cm/s
- Papp B→A at 120 min, 10 µM [7, 23]: 6.39 ×10⁻⁶ cm/s
- Papp B→A at 120 min, 10 µM [7, 24]: 6.09 ×10⁻⁶ cm/s

SMILES: CC(C)NCC(O)COc1cccc2[nH]ccc12 (stereo not shown) [Pindolol, pindolol]
- Papp A→B at 2 h (in vitro): 14.2 ×10⁻⁶ cm/s

SMILES: CCCC(=O)[O-].[Na+] [sodium butyrate]
- effect on cell monolayer integrity and permeability following transport (Caco-2 cell monolayers; 4 mM in medium for three days prior to simulated transport, not following transport): adversely affects monolayer integrity and permeability following transport
- effect on cell monolayer integrity or permeability (Caco-2 cell monolayers; added to tissue culture medium following simulated transport, not prior to transport): does not disrupt cell monolayer integrity or permeability
